Measured values: patent US10336752B2, “TYK2 inhibitors, uses, and methods for production thereof” (Nimbus Lakshmi, Inc., priority 2017, dated 2019)
In brackets after ≈: the same amount, converted by molar mass. Values belong to the compound of their own block, whether it stands above or below them.

Columns and labels:
[1] = Kinetic Solubility Determination Assay; format: physicochemical; conditions: aqueous buffer, kinetic from dmso stock, PBS pH 7.4, RT, read-out: Kin. Sol. pH 7.4
Description: Stock solutions of test compounds were prepared in DMSO at the concentration of 10 mM. The stock solutions of positive control compound were prepared in DMSO at the concentration of 30 mM. Progesterone was used as positive control in the assay. 30 μL stock solution of each compound was placed in order into their proper 96-well rack, followed by adding 970 μL of PBS at pH 7.4 into each vial of the cap-less solubility sample plate. This study was performed in duplicate. One stir stick was added to each vial and then vials were sealed using a molded PTDE/SIL 96-Well Plate Cover. The Solubility Sample plate was transferred to the Thermomixer Comfort plate shaker and incubated at RT for 2 hours with shaking at 1100 rpm. After 2 hours incubation, stir sticks were removed using a big magnet and all samples from the Solubility Sample plate were transferred into the filter plate. All the samples were filtered by using the vacuum manifold. The filtered samples were diluted with methanol. Standards of each test compound were prepared at 0.3, 0.09 and 0.1 μM concentrations and both the test samples and standards were analyzed by LC-MS and the test samples were quantified against a standard of known concentration in DMSO using mass spectral peak identification and quantitation.

[2] = Dissolution Assay in Fasted Simulated Gastric Fluid; format: physicochemical; conditions: 37° C., 50 rpm, compressed disc
Description: The dissolution bath was filled with 900 mL of media for testing, the bath temperature held at 37° C., the rotation rate of the apparatus was 50 rpm, the draw point for the sampling probe was set exactly halfway between the surface of the media and the surface of the disc. The test article (0.4 g) was compressed into a disc using a Woods apparatus. The sampling time points were 10, 30, 60, 90, 120, 150 & 180. The samples were analysed by HPLC for concentration against a sample preparation of known concentration (ca. 0.5 mg/ml). Dissolution rate was derived from the curve of concentration against time.

[3] = Pharmacokinetic Study in Dogs; format: in vivo; conditions: male, Beagle; dog, oral gavage 10 mg/kg, 20% HPβCD aq., plasma
Description: Male Beagle dogs (9-14 kg; 2.5 to 5.5 years of age) housed one per cage under standard laboratory conditions were fasted for approximately 16 to 17 hours prior to dosing with food returned approximately 2 hours after dosing. […] Blood samples were collected from the jugular vein (˜1.5 mL) by venipuncture, and stored in tubes treated with K2EDTA, then centrifuged (3000 g, 4° C., 5 min). The plasma samples were transferred and stored at −70° C. until analysis. Bioanalysis: Concentrations for experimental samples and plasma calibration standards were determined by LC/MS/MS (API-5500, reverse-phase chromatography, APCI) following extraction by plasma precipitation with cold acetonitrile (4:1 ACN/plasma by volume) containing verapamil as an internal standard. PK Analysis: The individual animal plasma concentration-time data was analyzed by noncompartmental analysis (linear trapazoidal fitting) using PK Solver software (v2.0).

[4] = CACO-2 Cell Permeability Assay; format: in vitro ADME; conditions: human, Caco-2, pH 7.4, apical to basolateral
Description: Caco-2 cells were diluted to 6.86×10^5 cells/mL with culture medium and 50 μL of cell suspension were dispensed into the filter well of the 96-well HTS Transwell plate. Cells were cultivated for 14˜18 days in a cell culture incubator at 37° C., 5% C02, 95% relative humidity. Cell culture medium was replaced every 2 days, beginning no later than 24 hours after initial plating. 3) After 14˜18 days incubation, the plates were removed from incubator. The inserts were washed twice with pre-warmed HBSS (10 mM HEPES, pH 7.4) and placed into receiver plates. 75 μL and 235 μL of buffer were added to each Transwell inserts and receiver wells, respectively. Then the plates were incubated for 30 min at 37° C. with shaking at 150 rpm. Stock solutions of control compound were prepared in DMSO at 10 mM and then diluted to 1 mM with DMSO followed by further diluting with HBSS (10 mM HEPES, pH 7.4) to get compound working solution. Stock solutions of test compound were prepared in DMSO at 10 mM and then diluted to 1 mM with DMSO followed by further diluting with HBSS (10 mM HEPES, pH 7.4, 4% BSA) to get compound working solution. The final concentration of test compound and control compound was 5 μM. To determine the rate of drug transport in the apical to basolateral direction, 75 μL of compound working solution was added to the filter well (apical compartment) and 235 μL of HBSS (10 mM HEPES, pH 7.4, or 4% BSA) to receiver plate (basolateral compartment). To determine the rate of drug transport in the basolateral to apical direction, 235 μL of compound working solution was added to each well of the receiver plate (basolateral compartment) and 75 μL of HBSS (10 mM HEPES, pH 7.4, or 4% BSA) to filter well (apical compartment). The assay was performed in duplicate. 6) Plates were incubated for 2 hours at 37° C. At the end of the transport period, aliquots of 50 μL were removed directly from the apical and basolateral wells and transferred to wells of new plates. Four volumes of cold Methanol containing internal standards (IS, 100 nM Alprazolam, 200 nM Labetalol and 200 nM Diclofenac) was added into each well. Samples were centrifuged at 3,220 g for 30 minutes. An aliquot of 100 μL of the supernatant mixed with 100 μL of ultra-pure water were used for LC-MS/MS analysis. 7) Solution was discarded from Transwell plates. 100 μL of Lucifer Yellow solution (100 μM in HBSS) and 300 μL of HBSS were added into each well of Transwell insert and receiver, respectively, for leakage determination. Plates were incubated at 37° C. for 30 minutes. 80 μL aliquots from wells of apical and basolateral sides were transferred to solid black plates and the plate was read with Tecan Infinite M 200 (Excitation/Emission wavelength 485 nm/530 nm). The liquid fractions, apical and basolateral layers were analyzed by LC-MS to determine Papp(A-B), Papp(B-A) and recovery.

[5] = Metabolic Clearance Assay in Microsomes (human liver microsomes); format: in vitro ADME; conditions: NADPH and UDPGA, read-out: HLM Clint
Description: A master solution was prepared containing 0.5 mg/mL of either rat or human liver microsomes, 5 mM MgCl2, 100 mM phosphate buffer, and 25 ug/mL alamethacin. 40 μL of 10 mM NADPH solution and 40 μL of 20 mM UDPGA solution were added to each well. The final concentrations of NADPH and UDPGA were 1 mM and 2 mM, respectively. The mixture was pre-warmed at 37° C. for 5 minutes. The negative control samples were prepared by replacing NADPH and UDPGA solutions with 80 μL of ultra-pure H2O. The negative control was used to exclude the misleading factor that resulted from instability of chemical itself. This study was performed in duplicate. The reaction was started with the addition of 2 μL of 400 μM control compound or test compound solutions. Diclofenac was used as positive control in this study. The final concentration of test compound or control compound was 2 μM. Aliquots of 50 μL were taken from the reaction solution at 0, 15, 30, 45 and 60 minutes. The reaction was stopped by the addition of 4 volumes of cold acetonitrile (or methanol) with internal standard (IS) (100 nM alprazolam, 200 nM imipramine, 200 nM labetalol and 2 μM ketoprofen) at the designated time points. Samples were centrifuged at 3,220 g for 40 minutes to precipitate protein. Aliquot of 100 μL supernatant diluted by 100 μL of water was used for LC-MS/MS analysis. The in vitro half-life, scale-up intrinsic clearance, and predicted hepatic clearance were calculated according to standard calculations.

TYK2 = TYK2 (Homo sapiens (Human), UniProt P29597); assay: 1 mM ATP Tyk2 Caliper Assay; format: biochemical; conditions: ATP 1000 uM
Chain of TYK2 (P29597 whole entry): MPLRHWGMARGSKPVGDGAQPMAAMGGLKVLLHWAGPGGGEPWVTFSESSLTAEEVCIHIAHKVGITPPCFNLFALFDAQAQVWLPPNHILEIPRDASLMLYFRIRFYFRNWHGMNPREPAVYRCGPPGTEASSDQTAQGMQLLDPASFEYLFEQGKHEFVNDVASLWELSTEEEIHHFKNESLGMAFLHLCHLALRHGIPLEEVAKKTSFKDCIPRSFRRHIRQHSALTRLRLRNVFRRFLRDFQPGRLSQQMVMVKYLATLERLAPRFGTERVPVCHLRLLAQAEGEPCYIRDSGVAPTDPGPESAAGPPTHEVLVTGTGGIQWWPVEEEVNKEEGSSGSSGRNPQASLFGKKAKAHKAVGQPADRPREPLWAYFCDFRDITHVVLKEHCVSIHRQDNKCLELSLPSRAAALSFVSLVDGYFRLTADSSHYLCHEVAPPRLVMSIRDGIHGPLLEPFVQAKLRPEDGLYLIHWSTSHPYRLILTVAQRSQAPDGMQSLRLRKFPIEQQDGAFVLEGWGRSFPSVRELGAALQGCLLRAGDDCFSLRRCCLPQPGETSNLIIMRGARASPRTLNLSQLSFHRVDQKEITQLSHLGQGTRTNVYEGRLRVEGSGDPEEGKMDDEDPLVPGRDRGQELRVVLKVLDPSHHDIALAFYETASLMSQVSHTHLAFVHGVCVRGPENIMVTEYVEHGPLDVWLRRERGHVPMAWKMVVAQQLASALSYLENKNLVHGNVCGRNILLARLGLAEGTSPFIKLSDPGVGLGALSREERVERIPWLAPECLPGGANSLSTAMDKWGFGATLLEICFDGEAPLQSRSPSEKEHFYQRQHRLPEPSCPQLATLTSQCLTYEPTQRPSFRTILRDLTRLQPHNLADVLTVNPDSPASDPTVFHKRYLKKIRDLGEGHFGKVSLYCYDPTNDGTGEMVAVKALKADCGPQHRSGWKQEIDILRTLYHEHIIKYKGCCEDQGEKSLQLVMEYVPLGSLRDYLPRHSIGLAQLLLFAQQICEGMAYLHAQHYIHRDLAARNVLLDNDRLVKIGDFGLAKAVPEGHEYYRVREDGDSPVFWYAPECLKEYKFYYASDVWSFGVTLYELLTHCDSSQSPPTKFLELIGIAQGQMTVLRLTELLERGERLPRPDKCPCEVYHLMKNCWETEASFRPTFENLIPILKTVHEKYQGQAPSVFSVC
Description: Compounds were serially diluted in DMSO then further diluted in 1x kinase buffer: 5 uL of buffer diluted compound was added into wells first, then 10 uL of Tyk2 enzyme mix was added into wells, followed by 10 uL of substrate mix to start reaction. Reaction was incubated at 28° C. for 25 min and then added 25 uL stop buffer. The reaction mixture was read by a Caliper […]. Final concentrations for assay conditions were: 25 mM HEPES, pH 7.5, 0.01% Brij-35, 0.01% Triton, 0.5 mM EGTA, 2 mM DTT, 10 mM MgCl2, TYK2 4 nM, ATP concentration 1000 uM, and P30 3 uM.

[6] = Solid form stability of Compound 1 mesylate forms; format: physicochemical; conditions: for solid form stability at ambient conditions: drying / ambient conditions

SMILES: O=C1NCc2nc(-c3c(F)cccc3F)cc(Nc3ccc(N4CCCC4)cn3)c21 [Compound 7]
solubility kinetic at 2 h [1]: < 0.5 µM
IC50 (TYK2): 390 nM
Papp A→B at 2 h, 5 μM [4]: 13.5 ×10⁻⁶ cm/s
CLint scaled at 2 μM [5]: 10.9 mL/min/kg

SMILES: O=C1NCc2nc(-c3c(F)cccc3F)cc(Nc3ccc(N4CCOCC4)cn3)c21 [Compound 8]
solubility kinetic at 2 h [1]: 11.9 µM (≈ 5.05 µg/mL)
IC50 (TYK2): 33 nM
Papp A→B at 2 h, 5 μM [4]: 13.1 ×10⁻⁶ cm/s
CLint scaled at 2 μM [5]: 1.2 mL/min/kg

SMILES: O=C1NCc2nc(-c3c(F)cccc3F)cc(Nc3ccc(C(=O)N4CCOCC4)cc3)c21 [Compound 9]
solubility kinetic at 2 h [1]: 172 µM (≈ 77.3 µg/mL)
dissolution rate in Fasted Simulated Gastric Fluid (FaSSGF) [2]: 21.2 μg/cm^2/min
AUC(0-t) [3]: 10200 ng·h/mL
Cmax [3]: 1070 ng/mL
IC50 (TYK2): 134 nM
Papp A→B at 2 h, 5 μM [4]: 3.43 ×10⁻⁶ cm/s
CLint scaled at 2 μM [5]: 3 mL/min/kg

SMILES: CCN(CC)C(=O)c1ccc(Nc2cc(-c3c(F)cccc3F)nc3c2C(=O)NC3)cc1 [Compound 11]
solubility kinetic at 2 h [1]: 1.86 µM (≈ 0.812 µg/mL)
IC50 (TYK2): 119 nM
Papp A→B at 2 h, 5 μM [4]: 5.62 ×10⁻⁶ cm/s

SMILES: O=C1NCc2nc(-c3c(F)cccc3F)cc(Nc3ccc(C(=O)N4CCOCC4)nc3)c21 [Compound 13]
solubility kinetic at 2 h [1]: 252 µM (≈ 114 µg/mL)
Papp A→B at 2 h, 5 μM [4]: 2.89 ×10⁻⁶ cm/s
CLint scaled at 2 μM [5]: 1.9 mL/min/kg

SMILES: N#Cc1cccc(F)c1-c1cc(Nc2ccc(C(=O)N3CCOCC3)cc2)c2c(n1)CNC2=O [Compound 14]
solubility kinetic at 2 h [1]: 271 µM (≈ 124 µg/mL)
IC50 (TYK2): 24.2 nM
Papp A→B at 2 h, 5 μM [4]: 2.08 ×10⁻⁶ cm/s

SMILES: N#Cc1cccc(F)c1-c1cc(Nc2ccc(C(=O)N3CCCC3)cc2)c2c(n1)CNC2=O [Compound 16]
solubility kinetic at 2 h [1]: 32.9 µM (≈ 14.5 µg/mL)
IC50 (TYK2): 17.7 nM
Papp A→B at 2 h, 5 μM [4]: 2.63 ×10⁻⁶ cm/s

SMILES: O=C1NCc2nc(-c3c(F)cccc3F)cc(Nc3ccc(C(=O)N4C[C@H]5COC[C@H]5C4)cc3)c21 [Compound 17]
solubility kinetic at 2 h [1]: 205 µM (≈ 97.5 µg/mL)
IC50 (TYK2): 88.6 nM
Papp A→B at 2 h, 5 μM [4]: 1.52 ×10⁻⁶ cm/s

SMILES: CS(=O)(=O)O.O=C1NCc2nc(-c3c(F)cccc3F)cc(Nc3ccc(C(=O)N4CCCC4)cc3)c21 [Form III of Compound 1 mesylate]
solid form stability at ambient conditions [6]: transition to Form IV

Now from value to compound:

solubility kinetic at 2 h [1]: 274 µM (≈ 119 µg/mL)
dissolution rate in Fasted Simulated Gastric Fluid (FaSSGF) [2]: 57.5 μg/cm^2/min
AUC(0-t) [3]: 18700 ng·h/mL
Cmax [3]: 2100 ng/mL
Papp A→B at 2 h, 5 μM [4]: 5.77 ×10⁻⁶ cm/s
CLint scaled at 2 μM [5]: 0.62 mL/min/kg
SMILES: O=C1NCc2nc(-c3c(F)cccc3F)cc(Nc3ccc(C(=O)N4CCCC4)cc3)c21 [Compound 1]

solubility kinetic at 2 h [1]: 1.45 µM (≈ 0.65 µg/mL)
IC50 (TYK2): 90 nM
Papp A→B at 2 h, 5 μM [4]: 4.03 ×10⁻⁶ cm/s
CLint scaled at 2 μM [5]: 7.81 mL/min/kg
SMILES: O=C1NCc2nc(-c3c(F)cccc3F)cc(Nc3ccc(C(=O)N4CCCCC4)cc3)c21 [Compound 10]

solubility kinetic at 2 h [1]: 237 µM (≈ 113 µg/mL)
IC50 (TYK2): 136 nM
Papp A→B at 2 h, 5 μM [4]: 0.41 ×10⁻⁶ cm/s
SMILES: CC1(O)CCN(C(=O)c2ccc(Nc3cc(-c4c(F)cccc4F)nc4c3C(=O)NC4)cc2)CC1 [Compound 12]

solubility kinetic at 2 h [1]: 3.75 µM (≈ 1.58 µg/mL)
IC50 (TYK2): 74.1 nM
Papp A→B at 2 h, 5 μM [4]: 7.59 ×10⁻⁶ cm/s
CLint scaled at 2 μM [5]: 1.78 mL/min/kg
SMILES: O=C1NCc2nc(-c3c(F)cccc3F)cc(Nc3ccc(C(=O)N4CCC4)cc3)c21 [Compound 15]

solid form stability at ambient conditions [6]: stable
SMILES: CS(=O)(=O)O.O=C1NCc2nc(-c3c(F)cccc3F)cc(Nc3ccc(C(=O)N4CCCC4)cc3)c21 [Form IV of Compound 1 mesylate]

solid form stability upon grinding ([6]; grinding): transition to Form I
SMILES: CS(=O)(=O)O.O=C1NCc2nc(-c3c(F)cccc3F)cc(Nc3ccc(C(=O)N4CCCC4)cc3)c21 [Form V of Compound 1 mesylate]
